Several values for one entry are separate records, joined by “and”; a condition that tells them apart may be missing. Identical values can stand only once. Entries after “also recorded” stand apart in the source; their conditions may differ. *1 amine or outer side, *2 acyl side, *3 side chain or, on linkers, in order; H or OH if unused. Where a SMILES comes first, the peptide text is derived from it. [ ]: non-standard residue; d: D form. X1 = CC(=N)NCCCC[C@H](N[*:1])C(=O)[*:2]
Experiments:
[1] = Oscillatory rheology of peptide hydrogels; type: physicochemical; conditions: hydrogel at 1 wt. % in HBSS with sucrose
Description: Oscillatory rheology. Peptide hydrogels were analyzed for their mechanical properties by oscillatory rheology using a TA Instruments AR-G2 rheometer (TA Instruments, New Castle, DE). Samples of 150 μL of 1 wt. % MDP hydrogels were prepared 24 hours prior to use for rheology, to allow full equilibration of the material. Gel samples were then transferred from a cut syringe onto the rheometer stage equipped with a 12 mm stainless-steel parallel plate set to a […] gap height. The following program was used to monitor the storage modulus (G′) and loss modulus (G″) under various conditions as has been previously published (Li & Hartgerink, 2017). Strain sweep analysis was performed using an applied strain of 0.01-200% at a frequency of 1 rad/s. Frequency sweep analysis was performed under 1% strain at 0.1-100 rad/s. Shear recovery analysis was performed by subjecting the peptide sample to 1% strain for 20 min, then 200% for 1 min, and finally 1% for 20 min, allowing for disruption of the hydrogel and monitoring of G′ and G″ recovery.

B16-F0 melanoma tumors = test: Tumor growth in the B16-F0 melanoma model; type: in vivo, mice; conditions: monotherapy, single intratumoral injection
Description: (§1) Evaluation of in vivo VEGF reduction using murine B16-F0 melanoma tumor model. C57BL/6J male mice were purchased from The Jackson Laboratory. Tumor inoculation was performed when mice reached 10-14 weeks of age. All experiments were performed with approval of IACUC at Baylor College of Medicine (BCM) and followed established protocols. B16-F0 melanoma cell line was purchased from American Type Culture Collection (ATCC) and maintained according to manufacturer instructions (DMEM high-glucose with 10% fetal bovine serum and 1% penicillin/streptomycin). C57BL/6J mice were injected subcutaneously (s.c.) with 3×10^5 B16-F0 cells in a single flank. Once tumors became palpable (day 7 post-inoculation) mice were injected intratumorally (i.t.) with either vehicle buffer control Hank's Balanced Salt Solution (HBSS), free L-NIL dissolved in HBSS at 20 mM, K2-MDP hydrogel at 1 wt. % (5.6 mM peptide), or L-NIL-MDP hydrogel at 1 wt. % (5.2 mM peptide, or approximately 20 mM L-NIL functional groups). All injections were done using 100 μL total injection volume.

[2] = prior studies (Leach et al., 2019); cited from earlier work
VEGF = test: Serum VEGF ELISA in mice bearing B16-F0 melanoma tumors; type: in vivo; conditions: 5 days after single 100 μL intratumoral injection
Description: as §1, with “Tumor inoculation was performed when mice reached 10-14 weeks of age.” left out
Mice were euthanized 5 days following i.t. injections and tumor/blood were collected. […] VEGF quantification of undiluted serum was performed using a mouse VEGF Quantikine ELISA kit (R&D Systems, Minneapolis, MN) following manufacturer's instructions. […] Statistical differences were evaluated using Tukey's multiple comparisons test. […]

[3] = CDN drug release kinetics from hydrogels; type: physicochemical
Description: Drug release kinetics. For release kinetics studies of CDN release from various hydrogel formulations, aliquots of CDN-loaded gel (30 μL each) were deposited into 96 well Falcon® flat bottom plates (Becton Dickinson Labware, Franklin Lakes, NJ). 30 μL gel was pipetted to generate a cylindrical puck in each well for each experiment. The pipetted gels were allowed to shear recover for approximately 5-10 min before adding 200 μL of the relevant buffer to the top of the gels (1× HBSS for all MDPs, 1× DPBS for collagen, Matrigel, 1× HBSS with 0.1 M CaCl2) for alginate, etc. according to the gelation requirements of the material). The addition of buffer was defined as t=0 for the beginning of release kinetics experiments. Table 1 summarizes the material conditions and preparation methods used for various comparative CDN delivery kinetics studies.
A Nanodrop 2000C Spectrophotometer (Thermo Scientific) was used to measure drug release by UV absorbance at 259 nm for CDN ML RR-S2 CDA, using an extinction coefficient of 24,000 M^−1cm^−1 (259 nm). Absorbance measurements were obtained by removing […] from the top of the liquid buffers above the loaded gels, over time measuring the increase in absorbance. Over the course of the first 24 hours, release of CDN was measured usually every 1-2 hours and converted to total percent released, with additional measurements also made every 24 hours for up to a week to establish when equilibrium had been reached.

CC(=N)NCCCC[C@H](NC(=O)[C@H](CCCCNC(C)=N)NC(=O)[C@H](CC(C)C)NC(=O)[C@H](CO)NC(=O)[C@H](CC(C)C)NC(=O)[C@H](CO)NC(=O)[C@H](CC(C)C)NC(=O)[C@H](CO)NC(=O)[C@H](CC(C)C)NC(=O)[C@H](CO)NC(=O)[C@H](CC(C)C)NC(=O)[C@H](CO)NC(=O)[C@H](CC(C)C)NC(=O)[C@H](CO)NC(=O)[C@H](CCCCNC(C)=N)NC(=O)[C@H](CCCCNC(C)=N)NC(C)=O)C(N)=O [L-NIL-MDP] (Ac-[X1][X1]SLSLSLSLSLSL[X1][X1]-NH2)
loss modulus (G″) [1]: 20-25 Pa and ~25 Pa | storage modulus (G′) [1]: 260-300 Pa and ~300 Pa | tumor growth reduction (in words) (B16-F0 melanoma tumors): no favorable effect on tumor growth reduction | hydrogel observable post injection [2]: 21 days | reduction of systemic VEGF levels (in words) (VEGF): significantly reduced systemic VEGF levels; also recorded: Significant VEGF reduction | CDN release profile (in words) [3]: comparable or even better controlled release

From patent US12251449B2, “Synthetic multidomain peptide biomaterials that inhibit inducible nitric oxide synthase” (William Marsh Rice University, priority 2019, dated 2025)
